This test concerns Rhynchophorus palmarum. Put plainly: Field trapping study of Rhynchophorus palmarum control in palm tree groves (baited traps, 1 month, French Guiana). The class given is in vivo. The conditions noted are these: second (last) Total capture column; period not printed separately (study dates March-May 1997); total insects in all traps with the same test substance. The source says: Study of Rhynchophorus palmarum Control in Palm Tree Groves
This experiment was designed to assess the control of Rhynchophorus palmarum control in ornamental, palm trees and in coconut palms according to the characteristics indicated hereunder.
Insect species against which the experiment was designed: Rhynchophorus palmarum, Coleoptera curculionidae, Rhynchophorinae.
Testing area: Cayenne—Remire Montjoly, French Guiana.
Plants: Ornamental palm tree groves and coconut palms.
Substances tested: • (a) Vegetal bait (sugar cane in 25 cm lengths cut lengthwise through the middle and fermented during 24 hours at 28° C., and Rhynchophorol (synthetic feromone) • (b) INIA 1 composition and Rhynchophorol. • (c) INIA 2 composition and Rhynchophorol. • (c) INIA 3 composition and Rhynchophorol. • (e) Reference specimen (only Rhynchophorol).
A randomly selected “double blind” test was repeated 4 times in traps installed over trash cans modified to include spreaders comprising a supporting agent capable of absorbing/adsorbing and releasing the compositions to be tested and designed to emit said compositions.
The vegetal bait, namely cut-up cane, was arranged in a bundle on the bottom of the trap can. Feromone (Rhynchophorol) was released from small hermetic plastic 200 μm envelopes loaded with 0.2 cm^3 of synthetic feromone spreading a minimum of 2 mg/day through pores in the trap. […]

Take `C/C=C/C(O)CC(C)C` (stereo not shown) [(e), Rhynchophorol]: the Total capture is on record as 3.
